Activity calls are given as the source filed them. No cut-off for these calls is given here.
Experiments:
[1] = system: Bel-7402; experiment: Anti-proliferative activity against human Bel-7402 cells incubated for 72 hrs by MTT assay; type: functional, cell-based; conditions: Bel-7402, 72 h
[2] = system: SW-620; experiment: Anti-proliferative activity against human SW620 cells incubated for 72 hrs by MTT assay; type: functional, cell-based; conditions: SW-620, 72 h
[3] = Selectivity index, ratio of IC50 for human L02 cells to IC50 for human A549 cells; type: toxicity; conditions: L02 cells versus A549 cells, read-out: Ratio IC50
[4] = Selectivity index, ratio of IC50 for human L02 cells to IC50 for human Bel-7402 cells; type: toxicity; conditions: L02 cells versus Bel-7402 cells, read-out: Ratio IC50
[5] = Selectivity index, ratio of IC50 for human L02 cells to IC50 for human SW620 cells; type: toxicity; conditions: L02 cells versus SW620 cells, read-out: Ratio IC50
[6] = system: HCT-116; experiment: Anti-proliferative activity against human HCT-116 cells assessed as reduction in total STAT3 level upto 3 uM incubated for 72 hrs by Western blot analysis; type: functional, cell-based
[7] = system: HCT-116; experiment: Induction of ferroptosis in human HCT-116 cells incubated for 72 hrs in presence of DFO by MTT assay; type: functional, cell-based
[8] = system: HCT-116; experiment: Depletion of GSH in human HCT-116 cells assessed as reduction in GSH/GSSG ratio upto 3 uM incubated for 24 hrs; type: functional, cell-based
[9] = system: HCT-116; experiment: Induction of oxidative stress in human HCT-116 cells assessed as increase in MDA level incubated for 24 hrs; type: functional, cell-based; conditions: dose <= 3.0 µM
[10] = system: HCT-116; experiment: Induction of apoptosis in human HCT-116 cells assessed as late apoptotic cells at 0.03 uM incubated for 72 hrs by Annexin V-FITC/PI staining based flow cytometry (reference value: 0.98 %); type: functional
[11] = system: HCT-116; experiment: Induction of apoptosis in human HCT-116 cells assessed as late apoptotic cells at 0.3 uM incubated for 72 hrs by Annexin V-FITC/PI staining based flow cytometry (reference value: 0.98 %); type: functional
[12] = system: HCT-116; experiment: Induction of apoptosis in human HCT-116 cells assessed as viable cells at 3 uM incubated for 72 hrs by Annexin V-FITC/PI staining based flow cytometry (reference value: 97.1 %); type: functional; conditions: read-out: Activity
[13] = system: HCT-116; experiment: Induction of apoptosis in human HCT-116 cells assessed as late apoptotic cells at 3 uM incubated for 72 hrs by Annexin V-FITC/PI staining based flow cytometry (reference value: 0.98 %); type: functional
[14] = system: HCT-116; experiment: Induction of apoptosis in human HCT-116 cells in presence of Z-VAD-FMK; type: functional, cell-based
[15] = system: HCT-116; experiment: Induction of apoptosis in human HCT-116 cells assessed as increase in JNK level upto 3 uM incubated for 72 hrs by Western blot analysis; type: functional, cell-based
[16] = system: HCT-116; experiment: Induction of apoptosis in human HCT-116 cells assessed as increase in p38 level upto 3 uM incubated for 72 hrs by Western blot analysis; type: functional, cell-based
[17] = system: HCT-116; experiment: Induction of cell cycle arrest in human HCT-116 cells assessed as accumulation at G0/G1 phase at 0.03 uM incubated for 72 hrs by PI staining based flow cytometry (reference value: 80.71 %); type: functional
[18] = system: HCT-116; experiment: Induction of cell cycle arrest in human HCT-116 cells assessed as accumulation at G0/G1 phase at 0.3 uM incubated for 72 hrs by PI staining based flow cytometry (reference value: 80.71 %); type: functional
[19] = system: HCT-116; experiment: Induction of cell cycle arrest in human HCT-116 cells assessed as accumulation at G0/G1 phase at 3 uM incubated for 72 hrs by PI staining based flow cytometry (reference value: 80.71 %); type: functional
[20] = system: HCT-116; experiment: Induction of cell cycle arrest in human HCT-116 cells assessed as accumulation at G2/M phase at 0.03 uM incubated for 72 hrs by PI staining based flow cytometry (reference value: 15.79 %); type: functional
[21] = system: HCT-116; experiment: Induction of cell cycle arrest in human HCT-116 cells assessed as accumulation at G2/M phase at 0.3 uM incubated for 72 hrs by PI staining based flow cytometry (reference value: 15.79 %); type: functional
[22] = system: HCT-116; experiment: Induction of cell cycle arrest in human HCT-116 cells at G2/M phase assessed as increase in p53 level incubated for 72 hrs by Western blot analysis; type: functional, cell-based; conditions: dose <= 3.0 µM
[23] = Toxicity in BALB/c mouse assessed as diarrhea at 100 mg/kg, ip administered continuously for 7 days; type: organism-based; conditions: in vivo, 168 h, time 7 day
[24] = Toxicity in BALB/c mouse assessed as decrease in body weight at 100 mg/kg, ip administered continuously for 7 days; type: organism-based; conditions: in vivo, 168 h, time 7 day
[25] = Toxicity in BALB/c mouse assessed as apparent damage in liver at 100 mg/kg, ip administered continuously for 7 days by H and E staining based analysis; type: organism-based; conditions: in vivo, 168 h, time 7 day
[26] = Toxicity in BALB/c mouse assessed as apparent damage in kidney at 100 mg/kg, ip administered continuously for 7 days by H and E staining based analysis; type: organism-based; conditions: in vivo, 168 h, time 7 day
[27] = Toxicity in BALB/c mouse assessed as toxic effect upto 100 mg/kg, ip administered continuously for 7 days; type: organism-based; conditions: in vivo, 168 h, time 7 day
[28] = system: HCT-116; experiment: Antitumor activity against human HCT-116 cells xenografted in mouse at 50 mg/kg, ip administered once in every 2 days for 21 days relative to control; type: functional; conditions: HCT-116, 504 h, time 21 day, read-out: TGI
[29] = Toxicity in mouse xenografted with human HCT-116 cells assessed as body weight change at 50 mg/kg, ip administered once in every 2 days for 21 days; type: organism-based; conditions: in vivo, 504 h, time 21 day
[30] = system: HCT-116; experiment: Antitumor activity against human HCT-116 cells xenografted in mouse assessed as reduction in nuclear-cytoplasmic ratio at 50 mg/kg, ip administered once in every 2 days for 21 days by H and E staining based analysis; type: functional, organism-based; conditions: time 21.0 day

`C[C@@H]1CC[C@H]2[C@@H](C)C(OC(=O)Nc3ccc(Cl)cc3)O[C@@H]3O[C@@]4(C)CC[C@H]1[C@]32OO4` (stereo not given in full) showed an IC50 [1] of 8.41 µM, an IC50 [2] of 0.6 µM and a selectivity ratio [3] of 16.8. For the same molecule, the selectivity ratio [4] was 2, the selectivity ratio [5] was 28 and the Activity [6] was “Active”. For the same molecule, the Activity [7] was “inactive”, the Activity [8] was “Active” and the Activity [9] was “Dose-dependent-effect”. The Activity [10] was 2.4%, the Activity [11] was 8.21% and the viability at 3 µM [12] was 56.7%. The Activity [13] was 26.2%, the Activity [14] was “inactive” and the Activity [15] was “Active”. For the same molecule, the Activity [16] was “Active”, the Activity [17] was 49.21% and the Activity [18] was 37.62%. It also gave an Activity [19] of 42.97%, an Activity [20] of 25.25% and an Activity [21] of 37.8%. For the same molecule, the Activity [22] was “Dose-dependent-effect”, the Activity [23] was “Non-toxic” and the Activity [24] was “Non-toxic”. The Activity [25] was “Non-toxic”, the Activity [26] was “Non-toxic” and the Activity [27] was “Non-toxic”. For the same molecule, the inhibition in vivo at 50 mg/kg [28] was at most 58.7%, the Activity [29] was “Non-toxic” and the Activity [30] was “Active”.
